Data: PMC11973072, “Computational screening for novel α-glucosidase inhibitory peptides from Chlamys nobilis adductor muscle as a potential antidiabetic agent” (Frontiers in Nutrition, 2025)
“And” between values parts separate entries of the source, which are not always exact repeats. Identical values can stand only once. Marks after values point to notes of the source that are not given here. Where no end group is shown, it is not given here.

What was measured:
blood glucose = test: Effect of EHCA on blood glucose in normal mice (starch gavage); assay type: in vivo, Kunming mice
Method: Fifty healthy adult male Kunming mice were purchased from Zhuhai Bestest Biotechnology Co., Ltd. The experiments were approved by the Animal Ethics Committee of Guangdong Ocean University with the approval number of GDOU-LAE-2021-002, approved on 6 April 2021. Before the experiment, all animals were watered and fed freely for 7 days. […] The groups were mixed with soluble starch (250 mg/kg) and gavaged synchronously for 3 d. […] Where G0 is the pre-dose fasting blood glucose value, mmol/L; […] Area under the curve (AUC) was calculated applying the following formula (Equation 4): (4) […]/4.

serum insulin = test: Effect of EHCA on serum insulin (INS); assay type: in vivo, Kunming mice; conditions: PC, metformin 150 mg/kg, mean ± SD, n = 10 mice
Method: Fifty healthy adult male Kunming mice were purchased from Zhuhai Bestest Biotechnology Co., Ltd. The experiments were approved by the Animal Ethics Committee of Guangdong Ocean University with the approval number of GDOU-LAE-2021-002, approved on 6 April 2021. Before the experiment, all animals were watered and fed freely for 7 days. […] The groups were mixed with soluble starch (250 mg/kg) and gavaged synchronously for 3 d. […] Effects of EHCA on mice at the end of the test, blood was taken from the eyeballs of mice, which were executed in the decapitated position, and the organs were collected for subsequent experiments. […] (5) […] Where WISI is the insulin sensitivity index; WFPG is fasting blood glucose, mmol/[…] is fasting insulin content (μU/mL); and WFBCI is the insulin secretion index.

SOD in liver = test: Hepatic superoxide dismutase (SOD) activity; assay type: in vivo, Kunming mice; conditions: PC, metformin 150 mg/kg
Method: Fifty healthy adult male Kunming mice were purchased from Zhuhai Bestest Biotechnology Co., Ltd. The experiments were approved by the Animal Ethics Committee of Guangdong Ocean University with the approval number of GDOU-LAE-2021-002, approved on 6 April 2021. Before the experiment, all animals were watered and fed freely for 7 days. […] The groups were mixed with soluble starch (250 mg/kg) and gavaged synchronously for 3 d.

[1] = pH 7.4
α-glucosidase = α-glucosidase (Saccharomyces cerevisiae, UniProt P53341); conditions: cited from earlier work
Source text: Marine proteins have a novel amino acid composition, which is one of the important sources for the production of bioactive peptides ([11], [12]). There have been a number of studies on natural hypoglycemic active peptides from marine sources such as Trachurus trachurus, Euphausia superba, Chlorella vulgaris and Crassostrea gigas ([11], [13-15]). […] The molecular weight of protein hydrolysates is a determinant of their biological activity, and peptide fractions with low molecular weights are highly biologically active ([33]).

[2] = tested on: glucose metabolizing enzyme; conditions: extracted from Spirulina; cited from earlier work
Source text: Marine proteins have a novel amino acid composition, which is one of the important sources for the production of bioactive peptides ([11], [12]). There have been a number of studies on natural hypoglycemic active peptides from marine sources such as Trachurus trachurus, Euphausia superba, Chlorella vulgaris and Crassostrea gigas ([11], [13–15]).

Chain of α-glucosidase (P53341 whole entry): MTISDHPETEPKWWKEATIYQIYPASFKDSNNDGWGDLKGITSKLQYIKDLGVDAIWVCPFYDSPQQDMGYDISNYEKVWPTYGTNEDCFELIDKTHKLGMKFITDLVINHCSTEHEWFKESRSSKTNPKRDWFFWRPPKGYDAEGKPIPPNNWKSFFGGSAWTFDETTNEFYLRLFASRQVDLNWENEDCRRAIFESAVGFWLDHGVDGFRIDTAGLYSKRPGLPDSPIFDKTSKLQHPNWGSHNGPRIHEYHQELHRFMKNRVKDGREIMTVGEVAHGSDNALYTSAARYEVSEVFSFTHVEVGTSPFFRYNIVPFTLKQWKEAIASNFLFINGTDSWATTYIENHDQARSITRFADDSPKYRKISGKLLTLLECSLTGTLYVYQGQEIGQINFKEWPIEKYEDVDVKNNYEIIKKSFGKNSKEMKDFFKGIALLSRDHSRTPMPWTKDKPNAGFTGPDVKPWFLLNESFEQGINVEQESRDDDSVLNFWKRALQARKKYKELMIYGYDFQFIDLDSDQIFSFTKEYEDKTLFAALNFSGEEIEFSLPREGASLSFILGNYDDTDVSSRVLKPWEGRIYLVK

With `CN(C)C(=N)N=C(N)N` [metformin] the “blood glucose values after gavage vs NC (in words)” value (blood glucose; 0.5 h and 2 h of gavage, compared with the NC group, p < 0.05) was “significantly reduce the blood glucose values”, the “AUC of blood glucose (in words)” value (blood glucose; EHCA 500-2,000 mg/kg or metformin 150 mg/kg, relative to NC group, p < 0.05, n = 10) was “markedly reduced the AUC values” and the “Blood glucose value, G1” value (blood glucose; PC, metformin 150 mg/kg, gavage 3 d, fasting at the end of dosing, mean ± SD, n = 10 mice) was 3.21 ± 0.20^a mmol/L. The “Blood glucose value, 0.5 h” value (blood glucose; PC, metformin 150 mg/kg, gavage 3 d with soluble starch, 0.5 h, mean ± SD, n = 10 mice, listed as PC) was 8.45 mmol/L, the “Blood glucose value, 2 h” value (blood glucose; PC, metformin 150 mg/kg, gavage 3 d with soluble starch, 2 h, mean ± SD, n = 10 mice, listed as PC) was 6.87 ± 1.14 mmol/L and 6.87 mmol/L and the “Blood glucose value, G0” value (blood glucose; PC, metformin 150 mg/kg, pre-dose fasting, mean ± SD, n = 10 mice) was 4.94 ± 1.71^a mmol/L. The “hypoglycemic rate (in words)” value (blood glucose; fasted mice, EHCA 500-2,000 mg/kg or metformin 150 mg/kg, 3 d, compared with the NC group, n = 10) was “significantly increased the hypoglycemic rate”, the Fasting serum insulin (serum insulin; ELISA) was 29.82 ± 5.50^a mIU/L and the Insulin secretion index (serum insulin) was 8.50 ± 1.12^a. The Insulin sensitivity index (serum insulin) was 2.13 ± 0.13^a, the “SOD activity in liver” value (SOD in liver; WST-8 method, mean ± SD, n = 10 mice, NC 242.00 ± 66.43) was 363.55 ± 18.09 U/mL and the “increase of SOD activity in liver” value (SOD in liver; compared to the NC group) was 50.23%.
With KLNSTTEKLEE the solubility [1] was “good solubility”.
In the case of LPLLR [Walnut-derived peptide LPLLR], the “inhibition of α-glucosidase” value (α-glucosidase; 2 mM, walnut-derived) is given as 50.12%.
For “LRSELAAWSR [peptide from Spirulina platensis]”, the IC50 (α-glucosidase; from Spirulina platensis) is given as 134 µM and the “IC50, inhibitory activity against α-glucosidase” value (α-glucosidase; from Spirulina platensis) is given as 134.2 mg/L.
In the case of “TDADHKF [TDADHKF, Thr-Asp-Ala-Asp-His-Lys-Phe]”, the solubility [1] is reported as “good solubility”.
In the case of “USW: anti-diabetic peptide USW extracted from Spirulina (LRSELAAWSR)”, the “effect on insulin resistance / glucose metabolizing enzyme” value [2] is given as “improve insulin resistance by significantly increasing activity of glucose metabolizing enzyme”.
